Laboratory results reported in ChEMBL document CHEMBL3272206, “Importance of the aromatic ring in adrenergic amines. 2. Synthesis and adrenergic activity of some nonaromatic six- and eight-membered ring analogs of beta-phenylethanolamine” (J Med Chem, 1976).
Calls of active or inactive are those of the source. No cut-off for these calls is given here.

B1: Phenylethanolamine N-methyltransferase (Bos taurus), P10938 (protein)
chain: MSGTDRSQAAGAVPDSDPGLAAVSSAYQRFEPRAYLRNNYAPPRGDLSCPDGVGPWKLRCLAQTFATGEVSGRTLIDIGSGPTIYQLLSACAHFEDITMTDFLEVNRQELRLWLREEPGAFDWSVYSQHVCLIEGKGESWQEKECQLRARVKRILPIDVHRPQPLGAGGLAPLPADALVSAFCLEAVSPDLASFQRALDHITTLLRPGGHLLLIGALEESWYLAGEARLAVVPVREEEVREALVRTATRCGICARTPMPAHLQTGVDDVKGIFFTRAQKKVGV

Assays:
Rattus norvegicus [1] = organism: Rattus norvegicus; assay: Adrenergic activity in reserpine-pretreated albino Sprague-Dawley rat vas deferens assessed as contractile response; assay type: functional, tissue-based
Rattus norvegicus [2] = organism: Rattus norvegicus; assay: Adrenergic activity in albino Sprague-Dawley rat vas deferens assessed as contractile response at 0.3 mM measured after 1 to 5 mins; assay type: functional, tissue-based
Vas deferens = assay: Adrenergic activity in reserpine-pretreated albino Sprague-Dawley rat vas deferens assessed as potentiation of norepinephrine-induced contractile response at 30 uM; assay type: functional, tissue-based
[3] = substrate: NCC(O)C1=C/CCCC/C=C\1; assay: (§1) Activity at PNMT in bovine adrenal medulla using DL-beta-phenylethanolamine and SAM-14CH3 as substrate measured per mg of protein by Michaelis-Menten analysis; settings: Bos taurus
[4] = substrate: NCC(O)C1CCCCCCC1; assay: as §1; settings: Bos taurus
[5] = substrate: NCC(O)C1CCCCC1; assay: as §1; settings: Bos taurus
[6] = substrate: NCC(O)C1=C/C=C\C=C/C=C\1; assay: as §1; settings: Bos taurus
[7] = substrate: NCC(O)C1CC=CCC1; assay: as §1; settings: Bos taurus
[8] = substrate: NCC(O)/C1=C/CC/C=C\CC1; assay: as §1; settings: Bos taurus
[9] = substrate: NCC(O)c1ccccc1; assay: as §1; settings: Bos taurus
[10] = substrate: NCC(O)C1=C/CCCC/C=C\1; assay: (§2) Activity at PNMT in bovine adrenal medulla using DL-beta-phenylethanolamine and SAM-14CH3 as substrate by Michaelis-Menten analysis; settings: Bos taurus
[11] = substrate: NCC(O)C1CCCCCCC1; assay: as §2; settings: Bos taurus
[12] = substrate: NCC(O)C1CCCCC1; assay: as §2; settings: Bos taurus
[13] = substrate: NCC(O)C1=C/C=C\C=C/C=C\1; assay: as §2; settings: Bos taurus
[14] = substrate: NCC(O)C1CC=CCC1; assay: as §2; settings: Bos taurus
[15] = substrate: NCC(O)/C1=C/CC/C=C\CC1; assay: as §2; settings: Bos taurus
[16] = substrate: NCC(O)c1ccccc1; assay: as §2; settings: Bos taurus

Molecule | Activity (Rattus norvegicus [1]) | Activity (Rattus norvegicus [2]) | Activity (Vas deferens) | also measured
NCC(O)C1CC=CCC1 (stereo not given) | inactive | Active | Active | –
NCC(O)C1=C/CCCC/C=C\1 (stereo not given) | inactive | Active | Active | –
C[C@@H](N)[C@@H](O)c1ccccc1 | inactive | Active | Active | –
NCC(O)C1CCCCCCC1 (stereo not given) | inactive | Active | Active | –
NCC(O)C1=C/C=C\C=C/C=C\1 (stereo not given) | inactive | Active | Active | –
NCC(O)/C1=C/CC/C=C\CC1 (stereo not given) | inactive | Active | – | –
NCC(O)C1CCCCC1 (stereo not given) | inactive | Active | Active | –
NCC(O)C1/C=C\CCCCC1 (stereo not given) | inactive | Active | Active | –
NCC(O)c1ccccc1 (stereo not given) | inactive | Active | Active | –
B1 | – | – | – | Vmax [3]: 2.61 nmol/min; Vmax [4]: 0.96 nmol/min; Vmax [5]: 0.99 nmol/min; Vmax [6]: 1.73 nmol/min; Vmax [7]: 1.37 nmol/min; Vmax [8]: 2.75 nmol/min; Vmax [9]: 2.1 nmol/min; Km [10]: 128 µM; Km [11]: 26 µM; Km [12]: 40 µM; Km [13]: 430 µM; Km [14]: 57 µM; Km [15]: 155 µM; Km [16]: 136 µM
